Measurements from patent US20220315578A1, “BRD9 BIFUNCTIONAL DEGRADERS AND THEIR METHODS OF USE” (NOVARTIS AG, priority 2019, published 2022).

Target: T1, BRD9-GFP (Homo sapiens, UniProt Q9H8M2)
T1 construct: CHYSEL (2A cis-acting hydrolase element) remnant after GFP; mCherry is split off as a separate protein (C); expressed in transfected cells; host or cells: HEK293A cells (Invitrogen R70507), lentiviral transduction with pLenti6-BRD9-GFP-CHYSEL-mCherry, blasticidin selection
T1 sequence (Q9H8M2 1-597): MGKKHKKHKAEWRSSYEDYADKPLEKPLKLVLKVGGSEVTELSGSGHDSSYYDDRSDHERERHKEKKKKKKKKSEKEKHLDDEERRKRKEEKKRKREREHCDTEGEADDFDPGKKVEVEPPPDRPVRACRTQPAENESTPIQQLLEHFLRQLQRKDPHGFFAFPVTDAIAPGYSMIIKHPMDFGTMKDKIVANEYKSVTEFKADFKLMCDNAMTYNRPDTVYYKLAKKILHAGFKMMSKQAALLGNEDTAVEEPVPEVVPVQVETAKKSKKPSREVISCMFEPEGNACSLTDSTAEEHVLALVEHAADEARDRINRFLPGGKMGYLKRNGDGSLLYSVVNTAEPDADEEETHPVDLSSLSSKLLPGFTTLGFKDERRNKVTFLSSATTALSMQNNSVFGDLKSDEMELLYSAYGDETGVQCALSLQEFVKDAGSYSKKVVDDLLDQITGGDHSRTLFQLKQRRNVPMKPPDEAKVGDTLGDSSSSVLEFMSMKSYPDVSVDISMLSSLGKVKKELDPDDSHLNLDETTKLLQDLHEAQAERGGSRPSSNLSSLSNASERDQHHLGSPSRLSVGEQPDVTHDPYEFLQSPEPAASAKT
Assay: BRD9-GFP protein abundance flow cytometry assay in HEK293A cells
Assay type: cell-based
Details: HEK293A-BRD9-GFP-CHYSEL-mCherry cells; for BRD9 Deg Amax %: 24 h, % protein remaining at the concentration at which maximum degradation is seen; for DC50: 24 h at 37° C., 10-point 1:3 dilution, concentration at which 50% maximal degradation was observed
How it was run: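 HEK293A cells stably express bicistronic BRD9-GFP-CHYSEL-mCherry and received 24 h treatment at 37° C with a 10-point, 3-fold dilution series from […], in 0.1% DMSO and duplicate. Median GFP/mCherry ratio of 5,000 single cells by flow cytometry, normalized to mCherry-only cells (0%) and DMSO (100%), gave DC50 and Amax (% protein remaining).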

Structure (SMILES) | BRD9 Deg Amax % [%] | DC50 [nM]
COc1ccc(C(=O)N2CCC(OCCN3CCN(Cc4c(OC)cc(-c5cn(C)c(=O)c6cnccc56)cc4OC)CC3)CC2)cc1N1CCC(=O)NC1=O [Compound A34, 1-(5-(4-(2-(4-(2,6-Dimethoxy-4-(2-methyl-1-oxo-1,2-dihydro-2,7-naphthyridin-4-yl)benzyl)piperazin-1-yl)ethoxy)piperidine-1-carbonyl)-2-methoxyphenyl)dihydropyrimidine-2,4(1H,3H)-dione] | 13.80 | 37
COc1cc(-c2cn(C)c(=O)c(C)c2C)ccc1CN1CCN(CC2CCN(C(=O)c3cccc(N4CCC(=O)NC4=O)c3)CC2)CC1 [Compound A15, 1-(3-(4-((4-(2-Methoxy-4-(1,4,5-trimethyl-6-oxo-1,6-dihydropyridin-3-yl)benzyl)piperazin-1-yl)methyl)piperidine-1-carbonyl)phenyl)dihydropyrimidine-2,4(1H,3H)-dione] | 29.47 | 49
COc1cc(-c2cn(C)c(=O)c3cnccc23)c(OC)cc1/C=C/C(=O)N1CCC(OC2CCN(C(=O)c3ccc(OC)c(N4CCC(=O)NC4=O)c3)CC2)CC1 [Compound A27, (E)-1-(5-(4-((1-(3-(2,5-dimethoxy-4-(2-methyl-1-oxo-1,2-dihydro-2,7-naphthyridin-4-yl)phenyl)acryloyl)piperidin-4-yl)oxy)piperidine-1-carbonyl)-2-methoxyphenyl)dihydropyrimidine-2,4(1H,3H)-dione] | 12.02 | 49
COc1cc(-c2cn(C)c(=O)c3cnccc23)c(OC)cc1CCN1CCC(OC2CCN(C(=O)c3ccc(OC)c(N4CCC(=O)NC4=O)c3)CC2)CC1 [Compound A41, 1-(5-(4-((1-(2,5-Dimethoxy-4-(2-methyl-1-oxo-1,2-dihydro-2,7-naphthyridin-4-yl)phenethyl)piperidin-4-yl)oxy)piperidine-1-carbonyl)-2-methoxyphenyl)dihydropyrimidine-2,4(1H,3H)-dione] | 13.54 | 60
COc1cc(-c2cc(C)c(=O)n(C)c2)ccc1C(=O)N1CCC(OC2CCN(C(=O)c3ccc(OC)c(N4CCC(=O)NC4=O)c3)CC2)CC1 [Compound A2, 1-(5-(4-((1-(4-(1,5-Dimethyl-6-oxo-1,6-dihydropyridin-3-yl)-2-methoxybenzoyl)piperidin-4-yl)oxy)piperidine-1-carbonyl)-2-methoxyphenyl)dihydropyrimidine-2,4(1H,3H)-dione] | 13.39 | 63
CCCCCCn1cc(-c2cc(OC)c(CCN3CCC(OC4CCN(C(=O)c5ccc(OC)c(N6CCC(=O)NC6=O)c5)CC4)CC3)c(OC)c2)c2ccncc2c1=O [Compound E4, 1-(5-(4-((1-(4-(2-hexyl-1-oxo-1,2-dihydro-2,7-naphthyridin-4-yl)-2,6-dimethoxy-phenethyl)piperidin-4-yl)oxy)piperidine-1-carbonyl)-2-meth-oxyphenyl)dihydro-pyrimidine-2,4(1H,3H)-dione] | 19.61 | 34
CCCCn1cc(-c2cc(OC)c(CCN3CC[C@@H](OC4CCN(C(=O)c5ccc(Cl)c(N6CCC(=O)NC6=O)c5)CC4)[C@H](F)C3)cc2OC)c2ccncc2c1=O [Compound E47, 1-(5-(4-(((3R,4R)-1-(4-(2-butyl-1-oxo-1,2-dihydro-2,7-naphthyridin-4-yl)-2,5-dimethoxyphenethyl)-3-fluoropiperidin-4-yl)oxy)piperidine-1-carbonyl)-2-chlorophenyl)dihydro-pyrimidine-2,4(1H,3H)-dione] | 32.89 | 49
COc1cc(-c2cn(C)c(=O)c3cnccc23)c(OC)cc1CCN1CCC(OC2CCN(CCn3cccc(CN4CCC(=O)NC4=O)c3=O)CC2)CC1 [Compound C3, 1-((1-(2-(4-((1-(2,5-dimethoxy-4-(2-methyl-1-oxo-1,2-dihydro-2,7-naphthyridin-4-yl)phenethyl)piperidin-4-yl)oxy)piperidin-1-yl)ethyl)-2-oxo-1,2-dihydropyridin-3-yl)methyl)dihydropyrimidine-2,4(1H,3H)-dione] | 17.50 | 77

These reach a lower DC50. Values come first.

BRD9 Deg Amax % [%] | DC50 [nM] | Structure (SMILES)
16.34 | 3 | CCCCn1cc(-c2cc(OC)c(CCN3CCC(OC4CCN(CCn5cccc(CN6CCC(=O)NC6=O)c5=O)CC4)CC3)c(OC)c2)c2ccncc2c1=O [Compound D4, 1-((1-(2-(4-((1-(4-(2-butyl-1-oxo-1,2-dihydro-2,7-naphthyridin-4-yl)-2,6-dimethoxyphenethyl)piperidin-4-yl)oxy)piperidin-1-yl)ethyl)-2-oxo-1,2-dihydropyridin-3-yl)methyl)dihydropyrimidine-2,4(1H,3H)-dione]
17.34 | 4 | CCCCn1cc(-c2ccc(OC3CCN(CC4CCN(C(=O)c5ccc(OC)c(N6CCC(=O)NC6=O)c5)CC4)CC3)cc2)c2ccncc2c1=O [Compound E42, 1-(5-(4-((4-(4-(2-butyl-1-oxo-1,2-dihydro-2,7-naphthyridin-4-yl)phenoxy)piperidin-1-yl)methyl)piperidine-1-carbonyl)-2-methoxyphenyl)dihydropyrimidine-2,4(1H,3H)-dione]
14.01 | 4 | COc1cc(-c2cn(C)c(=O)c3cnccc23)ccc1OC1CCN(CC2CCN(C(=O)c3ccc(OC)c(N4CCC(=O)NC4=O)c3)CC2)CC1 [Compound A4, 1-(2-Methoxy-5-(4-((4-(2-methoxy-4-(2-methyl-1-oxo-1,2-dihydro-2,7-naphthyridin-4-yl)phenoxy)piperidin-1-yl)methyl)piperidine-1-carbonyl)phenyl)dihydropyrimidine-2,4(1H,3H)-dione]
17.45 | 3 | CCCCn1cc(-c2ccc(OC3CCN(CC4CCN(C(=O)c5ccc(OC)c(N6CCC(=O)NC6=O)c5)CC4)CC3)c(Cl)c2)c2ccncc2c1=O [Compound E43, 1-(5-(4-((4-(4-(2-butyl-1-oxo-1,2-dihydro-2,7-naphthyridin-4-yl)-2-chlorophenoxy)piperidin-1-yl)methyl)piperidine-1-carbonyl)-2-methoxyphenyl)dihydropyrimidine-2,4(1H,3H)-dione]
13.73 | 2 | CCCn1cc(-c2cc(OC)c(CCN3CCC(OC4CCN(C(=O)c5ccc(Cl)c(N6CCC(=O)NC6=O)c5)CC4)CC3)c(OC)c2)c(C)c(C)c1=O [Compound B2, 1-(2-Chloro-5-(4-(1-(4-(4,5-dimethyl-6-oxo-1-propyl-1,6-dihydropyridin-3-yl)-2,6-dimethoxyphenethyl)piperidin-4-yloxy)piperidine-1-carbonyl)phenyl)dihydropyrimidine-2,4(1H,3H)-dione]
13.59 | 29 | COc1cc(-c2cn(C)c(=O)c3cnccc23)c(OC)cc1CN1CCC(OC2CCN(CCn3cccc(CN4CCC(=O)NC4=O)c3=O)CC2)CC1 [Compound C1, 1-((1-(2-(4-(1-(2,5-Dimethoxy-4-(2-methyl-1-oxo-1,2-dihydro-2,7-naphthyridin-4-yl)benzyl)piperidin-4-yloxy)piperidin-1-yl)ethyl)-2-oxo-1,2-dihydropyridin-3-yl)methyl)dihydropyrimidine-2,4(1H,3H)-dione]
13.05 | 15 | CCCCn1cc(-c2cc(OC)c(CN3CCC(OC4CCN(CCn5cccc(CN6CCC(=O)NC6=O)c5=O)CC4)CC3)c(OC)c2)c2ccncc2c1=O [Compound D2, 1-((1-(2-(4-((1-(4-(2-butyl-1-oxo-1,2-dihydro-2,7-naphthyridin-4-yl)-2,6-dimethoxybenzyl)piperidin-4-yl)oxy)piperidin-1-yl)ethyl)-2-oxo-1,2-dihydropyridin-3-yl)methyl)dihydropyrimidine-2,4(1H,3H)-dione]
32.92 | 11 | COc1ccc(C(=O)N2CCC(CN3CCC(Oc4ccc(-c5cn(C)c(=O)c6cnccc56)cc4Cl)CC3)CC2)cc1N1CCC(=O)NC1=O [Compound A17, 1-(5-(4-((4-(2-Chloro-4-(2-methyl-1-oxo-1,2-dihydro-2,7-naphthyridin-4-yl)phenoxy)piperidin-1-yl)methyl)piperidine-1-carbonyl)-2-methoxyphenyl)dihydropyrimidine-2,4(1H,3H)-dione]
13.01 | 2 | COc1ccc(C(=O)N2CCC(OC3CCN(CCCc4c(OC)cc(-c5cn(C)c(=O)c6cnccc56)cc4OC)CC3)CC2)cc1N1CCC(=O)NC1=O [Compound A37, 1-(5-(4-((1-(3-(2,6-Dimethoxy-4-(2-methyl-1-oxo-1,2-dihydro-2,7-naphthyridin-4-yl)phenyl)propyl)piperidin-4-yl)oxy)piperidine-1-carbonyl)-2-methoxyphenyl)dihydropyrimidine-2,4(1H,3H)-dione]
